Measurements taken from ChEMBL document CHEMBL5550215, “Discovery of Novel Imidazo[1,2-a]pyridine-Based HDAC6 Inhibitors as an Anticarcinogen with a Cardioprotective Effect” (J Med Chem, 2024).
One block for each molecule: values may come before it.

Legend:
[1] = system: H9c2; test: Protection against H2O2 induced myocardial cell injury in rat H9c2 cells at 10 uM pretreated for 24 hrs followed by H2O2 exposure and measured after 1.5 hrs (reference value: 17.91 to 57.32%); format: functional; settings: time 25.5 hrs
[2] = system: H9c2; test: Protection against H2O2 induced myocardial cell injury in rat H9c2 cells assessed as fold change at 10 uM pretreated for 24 hrs followed by H2O2 exposure and measured after 1.5 hrs relative to H2O2 alone; format: functional; settings: time 25.5 hrs
[3] = system: MGC-803; test: Antiproliferative activity against human MGC-803 cells assessed as inhibition of cell growth by MTT assay
[4] = system: HCT-116; test: Antiproliferative activity against human HCT-116 cells assessed as inhibition of cell growth by MTT assay
[5] = system: PANC-1; test: Antiproliferative activity against human PANC-1 cells assessed as inhibition of cell growth by MTT assay
[6] = system: TE-1; test: Antiproliferative activity against human TE-1 cells assessed as inhibition of cell growth by MTT assay
[7] = system: SMMC-7721; test: Antiproliferative activity against human SMMC-7721 cells assessed as inhibition of cell growth by MTT assay
[8] = system: NCI-H460; test: Antiproliferative activity against human NCI-H460 cells assessed as inhibition of cell growth by MTT assay
[9] = system: PC-3; test: Antiproliferative activity against human PC-3 cells assessed as inhibition of cell growth by MTT assay

Structure (SMILES): CCc1ccc(-c2cc(CNc3ccc(C(=O)NO)cc3)c3nccn3c2)cc1
Activity [1]: 63.8%
fold change (FC) [2]: 1.73

Structure (SMILES): O=C(NO)c1ccc(NCc2cc(-c3ccccc3F)cn3ccnc23)cc1
Activity [1]: 57.23%
fold change (FC) [2]: 1.55

Structure (SMILES): O=C(NO)c1ccc(NC(=O)c2cc(-c3ccc(F)cc3)cn3ccnc23)cc1
Activity [1]: 74.82%
fold change (FC) [2]: 2.11

Structure (SMILES): Cc1ccccc1-c1cc(CNc2ccc(C(=O)NO)cc2)c2nccn2c1
Activity [1]: 67.73%
fold change (FC) [2]: 1.38

Structure (SMILES): Cc1ccc(-c2cc(CNc3ccc(C(=O)NO)cc3F)c3nccn3c2)cc1
Activity [1]: 52.82%
fold change (FC) [2]: 1.36

Structure (SMILES): O=C(NO)c1ccc(NCc2cc(-c3ccccc3Cl)cn3ccnc23)cc1
Activity [1]: 57.08%
fold change (FC) [2]: 1.6

Structure (SMILES): Cc1ccc(-c2cc(CNc3ccc(C(=O)NNC(C)(C)C)cc3)c3nccn3c2)cc1
Activity [1]: 65.75%
fold change (FC) [2]: 2.17

Structure (SMILES): Cc1ccccc1-c1cc(C(=O)Nc2ccc(C(=O)NO)cc2)c2nccn2c1
Activity [1]: 56.16%
fold change (FC) [2]: 1.57

Structure (SMILES): Cc1cccc(-c2cc(NCc3ccc(C(=O)NO)cc3)c3nccn3c2)c1
Activity [1]: 49.08%
fold change (FC) [2]: 1.01

Structure (SMILES): Cc1ccc(-c2cc(NCc3ccc(C(=O)NO)cc3)c3nccn3c2)cc1
Activity [1]: 74.15%
fold change (FC) [2]: 2.08

Structure (SMILES): Cc1cccc(-c2cc(CNc3ccc(C(=O)NO)cc3)c3nccn3c2)c1
Activity [1]: 50.3%
fold change (FC) [2]: 1.36

Structure (SMILES): O=C(NO)c1ccc(NCc2cc(-c3cccs3)cn3ccnc23)cc1
Activity [1]: 68.84%
fold change (FC) [2]: 1.87

IC50 [3]: 5.07 µM
IC50 [4]: > 10 µM
IC50 [5]: > 10 µM
IC50 [7]: 3.18 µM
IC50 [8]: 9.44 µM
IC50 [9]: > 10 µM
Structure (SMILES): O=C(NO)c1ccc(NCc2cc(-c3cccc(Br)c3)cn3ccnc23)cc1
Activity [1]: 98.49%
IC50 [6]: 6.23 µM

IC50 [3]: 3.82 µM
IC50 [4]: > 10 µM
IC50 [5]: > 10 µM
IC50 [7]: 2.99 µM
IC50 [8]: > 10 µM
IC50 [9]: > 10 µM
Structure (SMILES): O=C(NO)c1ccc(NCc2cc(-c3cccc(Cl)c3)cn3ccnc23)cc1
Activity [1]: 73.84%
IC50 [6]: > 10 µM

Structure (SMILES): CCc1ccccc1-c1cc(CNc2ccc(C(=O)NO)cc2)c2nccn2c1
Activity [1]: 50.13%
fold change (FC) [2]: 2.01

Structure (SMILES): COc1ccccc1CNC(=O)c1ccc(NCc2cc(-c3ccc(C)cc3)cn3ccnc23)cc1
Activity [1]: 56.7%
fold change (FC) [2]: 1.88

Structure (SMILES): Cc1ccc(-c2cc(CNc3ccc(C(=O)Nc4ccccc4N)cc3)c3nccn3c2)cc1
Activity [1]: 21.76%
fold change (FC) [2]: 1.21

Structure (SMILES): Cc1ccc(-c2cc(C(=O)Nc3ccc(C(=O)NO)cc3)c3nccn3c2)cc1
Activity [1]: 65.82%
fold change (FC) [2]: 1.84

Structure (SMILES): COc1cc(-c2cc(C(=O)NCc3ccccc3)c3nccn3c2)cc(OC)c1OC
Activity [1]: 56.67%
fold change (FC) [2]: 0.99

IC50 [3]: 3.47 µM
IC50 [4]: 5.7 µM
IC50 [5]: > 10 µM
IC50 [7]: 1.98 µM
IC50 [8]: > 10 µM
IC50 [9]: > 10 µM
Structure (SMILES): Cc1cccc(-c2cc(C(=O)NCc3ccc(C(=O)NO)cc3)c3nccn3c2)c1
Activity [1]: 74.81%
IC50 [6]: 2.77 µM

Structure (SMILES): Cc1ccc(-c2cc(CNc3ccc(C(=O)NO)cc3C)c3nccn3c2)cc1
Activity [1]: 53.88%
fold change (FC) [2]: 1.51

Structure (SMILES): Cc1ccc(-c2cc(CNc3ccc(C(=O)NO)cn3)c3nccn3c2)cc1
Activity [1]: 58.82%
fold change (FC) [2]: 1.27

Structure (SMILES): O=C(NO)c1ccc(CNc2cc(-c3ccccc3F)cn3ccnc23)cc1
Activity [1]: 54.74%
fold change (FC) [2]: 1.13

Structure (SMILES): Cc1ccc(-c2cc(CNc3ccc(C(=O)O)cc3)c3nccn3c2)cc1
Activity [1]: 18.02%
fold change (FC) [2]: 1.01

Structure (SMILES): CC(C)c1ccc(-c2cc(CNc3ccc(C(=O)NO)cc3)c3nccn3c2)cc1
Activity [1]: 54.12%
fold change (FC) [2]: 1.47

Structure (SMILES): Cc1ccc(-c2cc(CNc3ccc(C(=O)NOC4CCCCO4)cc3)c3nccn3c2)cc1 (stereo unspecified)
Activity [1]: 59.02%
fold change (FC) [2]: 1.69

Structure (SMILES): O=C(NO)c1ccc(CNc2cc(-c3ccc(F)cc3)cn3ccnc23)cc1
Activity [1]: 90.19%
fold change (FC) [2]: 1.86

Structure (SMILES): Cc1ccc(-c2cc(CNc3ccc(C(=O)NNC(=O)OC(C)(C)C)cc3)c3nccn3c2)cc1
Activity [1]: 64.23%
fold change (FC) [2]: 2.12

Structure (SMILES): COc1cc(-c2cc(C(=O)NCCN3CCN(C(=O)OC(C)(C)C)CC3)c3ccccc3n2)cc(OC)c1OC
Activity [1]: 53.37%
fold change (FC) [2]: 1.19

Structure (SMILES): COc1cc(-c2cc(C(=O)NCCN3CCN(C(=O)OC(C)(C)C)CC3)c3nccn3c2)cc(OC)c1OC
Activity [1]: 49.54%
fold change (FC) [2]: 1.1

Structure (SMILES): COc1cc(-c2cc(C(=O)Nc3ccccc3)c3nccn3c2)cc(OC)c1OC
Activity [1]: 61.69%
fold change (FC) [2]: 1.23

Structure (SMILES): Cc1ccc(-c2cc(CNc3ccc(C(=O)NN)cc3)c3nccn3c2)cc1
Activity [1]: 85.94%
fold change (FC) [2]: 2.63

Structure (SMILES): Cc1ccc(-c2cc(CNc3ccc(C(=O)NNc4ccccc4)cc3)c3nccn3c2)cc1
Activity [1]: 64.68%
fold change (FC) [2]: 2.14

Structure (SMILES): Cc1ccc(-c2cc(CNc3ccc(C(=O)NNC(C)C)cc3)c3nccn3c2)cc1
Activity [1]: 54.92%
fold change (FC) [2]: 1.82

Structure (SMILES): COc1ccc(-c2cc(CNc3ccc(C(=O)NO)cc3)c3nccn3c2)cc1
Activity [1]: 57.47%
fold change (FC) [2]: 1.56

Structure (SMILES): Cc1ccc(-c2cc(CNc3ccc(C(=O)N4CCOCC4)cc3)c3nccn3c2)cc1
Activity [1]: 62.08%
fold change (FC) [2]: 2.05

Structure (SMILES): COc1cc(-c2cc(C(=O)NCCN3CCOCC3)c3nccn3c2)cc(OC)c1OC
Activity [1]: 36.19%
fold change (FC) [2]: 0.63

Structure (SMILES): COc1ccc(-c2cc(CNc3ccc(C(=O)NO)cc3)c3nccn3c2)c(OC)c1
Activity [1]: 56.04%
fold change (FC) [2]: 1.52

Structure (SMILES): Cc1ccc(-c2cc(CNc3ccc(C(=O)NNc4ccccc4F)cc3)c3nccn3c2)cc1
Activity [1]: 35.98%
fold change (FC) [2]: 1.19

Structure (SMILES): O=C(NO)c1ccc(NCc2cc(-c3ccc(F)cc3)cn3ccnc23)cc1
Activity [1]: 66.3%
fold change (FC) [2]: 1.86

Structure (SMILES): O=C(NO)c1ccc(NCc2cc(-c3cccc(F)c3)cn3ccnc23)cc1
Activity [1]: 53.76%
fold change (FC) [2]: 1.46

Structure (SMILES): Cc1ccc(-c2cc(CNc3ccc(C(=O)NO)cc3)c3nccn3c2)cc1
Activity [1]: 68.72%
fold change (FC) [2]: 1.93

Structure (SMILES): O=C(NO)c1ccc(CNc2cc(-c3cccc(F)c3)cn3ccnc23)cc1
Activity [1]: 72.58%
fold change (FC) [2]: 1.5

Structure (SMILES): Cc1ccccc1-c1cc(NCc2ccc(C(=O)NO)cc2)c2nccn2c1
Activity [1]: 67.83%
fold change (FC) [2]: 1.4

Structure (SMILES): COc1ccccc1NC(=O)c1ccc(NCc2cc(-c3ccc(C)cc3)cn3ccnc23)cc1
Activity [1]: 48.69%
fold change (FC) [2]: 1.61

Structure (SMILES): Cc1ccc(-c2cc(CNc3ccc(C(=O)NO)cc3Cl)c3nccn3c2)cc1
Activity [1]: 108.57%
fold change (FC) [2]: 2.79

Structure (SMILES): COc1ccccc1-c1cc(CNc2ccc(C(=O)NO)cc2)c2nccn2c1
Activity [1]: 67.63%
fold change (FC) [2]: 1.9

Structure (SMILES): COc1cc(-c2cc(C(=O)N3CCOCC3)c3nccn3c2)cc(OC)c1OC
Activity [1]: 34.81%
fold change (FC) [2]: 0.73

Structure (SMILES): Cc1cccc(-c2cc(C(=O)Nc3ccc(C(=O)NO)cc3)c3nccn3c2)c1
Activity [1]: 78.26%
fold change (FC) [2]: 2.19
